The target of test [1] is T1, Peroxisomal acyl-coenzyme A oxidase 3 (Homo sapiens, UniProt O15254).
T1 sequence (O15254 whole entry): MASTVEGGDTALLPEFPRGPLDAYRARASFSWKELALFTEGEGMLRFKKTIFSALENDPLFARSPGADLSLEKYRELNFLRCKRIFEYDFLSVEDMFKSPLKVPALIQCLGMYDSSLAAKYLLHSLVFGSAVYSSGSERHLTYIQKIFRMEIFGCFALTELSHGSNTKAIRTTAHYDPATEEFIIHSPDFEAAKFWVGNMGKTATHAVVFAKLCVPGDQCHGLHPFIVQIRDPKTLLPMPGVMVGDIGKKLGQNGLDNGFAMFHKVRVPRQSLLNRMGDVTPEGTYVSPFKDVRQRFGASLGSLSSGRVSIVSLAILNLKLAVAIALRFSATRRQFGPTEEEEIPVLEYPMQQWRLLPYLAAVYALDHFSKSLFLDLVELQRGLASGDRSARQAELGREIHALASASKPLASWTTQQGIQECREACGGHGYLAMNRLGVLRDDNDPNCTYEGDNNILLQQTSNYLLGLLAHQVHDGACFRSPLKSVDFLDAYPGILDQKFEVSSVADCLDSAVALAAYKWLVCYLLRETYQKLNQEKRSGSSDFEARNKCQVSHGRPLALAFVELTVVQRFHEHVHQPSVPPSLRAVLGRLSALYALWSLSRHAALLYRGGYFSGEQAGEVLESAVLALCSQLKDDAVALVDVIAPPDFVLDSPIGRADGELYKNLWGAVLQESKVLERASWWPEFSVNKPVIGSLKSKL

Test [2] addresses Calcium/calmodulin-dependent protein kinase type II subunit gamma (Homo sapiens, UniProt Q13555).
In test [3] the target is Insulin receptor (Homo sapiens, UniProt P06213).
For test [4], the target named is Midasin (Homo sapiens, UniProt Q9NU22).
For test [5], the target named is T2, Ribosyldihydronicotinamide dehydrogenase [quinone] (Homo sapiens, UniProt P16083).
T2 sequence (P16083 whole entry): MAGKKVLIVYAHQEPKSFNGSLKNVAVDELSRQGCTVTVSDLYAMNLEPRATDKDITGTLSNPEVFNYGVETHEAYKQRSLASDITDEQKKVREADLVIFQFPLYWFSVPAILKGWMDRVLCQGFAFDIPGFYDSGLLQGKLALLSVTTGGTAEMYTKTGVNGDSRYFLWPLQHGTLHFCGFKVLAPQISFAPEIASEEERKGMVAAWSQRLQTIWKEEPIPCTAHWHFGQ

Test [6] concerns the target T3, Dynamin-like GTPase OPA1, mitochondrial (Homo sapiens, UniProt O60313).
T3 sequence (O60313 whole entry): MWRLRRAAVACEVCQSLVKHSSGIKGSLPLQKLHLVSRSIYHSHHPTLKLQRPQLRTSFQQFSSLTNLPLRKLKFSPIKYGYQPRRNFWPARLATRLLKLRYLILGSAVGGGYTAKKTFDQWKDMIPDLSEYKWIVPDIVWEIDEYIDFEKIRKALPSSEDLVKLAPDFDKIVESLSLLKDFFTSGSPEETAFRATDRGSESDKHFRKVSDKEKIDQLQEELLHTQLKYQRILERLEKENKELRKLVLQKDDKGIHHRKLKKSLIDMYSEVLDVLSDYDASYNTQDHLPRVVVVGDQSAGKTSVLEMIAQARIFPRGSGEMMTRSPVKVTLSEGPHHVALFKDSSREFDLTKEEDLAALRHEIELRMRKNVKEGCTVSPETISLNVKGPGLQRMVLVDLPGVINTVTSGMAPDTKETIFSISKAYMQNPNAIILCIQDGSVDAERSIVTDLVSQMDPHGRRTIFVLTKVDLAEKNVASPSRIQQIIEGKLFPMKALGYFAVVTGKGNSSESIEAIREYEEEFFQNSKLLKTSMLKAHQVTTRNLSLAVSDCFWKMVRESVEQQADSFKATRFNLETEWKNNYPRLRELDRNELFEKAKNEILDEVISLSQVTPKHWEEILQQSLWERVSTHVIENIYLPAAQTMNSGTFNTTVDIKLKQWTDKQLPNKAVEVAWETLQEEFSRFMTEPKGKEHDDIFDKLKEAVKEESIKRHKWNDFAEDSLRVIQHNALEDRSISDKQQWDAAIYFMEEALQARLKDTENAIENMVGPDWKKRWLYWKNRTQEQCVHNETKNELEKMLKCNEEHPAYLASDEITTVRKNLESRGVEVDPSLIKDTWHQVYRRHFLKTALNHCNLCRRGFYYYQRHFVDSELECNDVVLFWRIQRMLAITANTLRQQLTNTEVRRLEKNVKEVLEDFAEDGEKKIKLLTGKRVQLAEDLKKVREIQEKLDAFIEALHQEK

Test [7] addresses Serine/threonine-protein kinase SIK2 (Homo sapiens, UniProt Q9H0K1).
Test [8] has as its target T4, Serine/threonine-protein kinase TBK1 (Homo sapiens, UniProt Q9UHD2).
T4 sequence (Q9UHD2 whole entry): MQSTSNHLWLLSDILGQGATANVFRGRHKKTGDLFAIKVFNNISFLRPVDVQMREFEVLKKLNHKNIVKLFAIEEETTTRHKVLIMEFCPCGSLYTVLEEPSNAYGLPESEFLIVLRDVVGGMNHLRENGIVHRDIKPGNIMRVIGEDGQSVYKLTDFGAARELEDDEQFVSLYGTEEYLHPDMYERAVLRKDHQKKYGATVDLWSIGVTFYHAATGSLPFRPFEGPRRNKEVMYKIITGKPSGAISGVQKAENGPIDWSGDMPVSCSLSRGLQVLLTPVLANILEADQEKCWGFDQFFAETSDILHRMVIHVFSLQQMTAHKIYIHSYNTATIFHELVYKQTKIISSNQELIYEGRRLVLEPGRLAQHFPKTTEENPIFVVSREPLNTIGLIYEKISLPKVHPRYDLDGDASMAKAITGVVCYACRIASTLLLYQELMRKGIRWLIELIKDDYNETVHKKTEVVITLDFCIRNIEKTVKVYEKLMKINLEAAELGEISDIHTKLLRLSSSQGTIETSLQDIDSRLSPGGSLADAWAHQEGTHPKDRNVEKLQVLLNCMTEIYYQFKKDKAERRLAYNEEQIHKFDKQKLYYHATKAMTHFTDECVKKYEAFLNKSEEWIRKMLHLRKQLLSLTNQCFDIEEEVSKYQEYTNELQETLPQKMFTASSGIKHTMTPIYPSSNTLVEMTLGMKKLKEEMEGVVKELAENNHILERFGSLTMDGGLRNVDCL

For test [9], the target named is Elongation factor Tu, mitochondrial (Homo sapiens, UniProt P49411).

The source of these data is ChEMBL document CHEMBL3991601, “The target landscape of clinical kinase drugs” (Science, 2017).

Each structure is given as a SMILES string. Calls of active or inactive are those of the source.
Note: in the data inactive means no Kd found up to 30 µM.

Chain of Calcium/calmodulin-dependent protein kinase type II subunit gamma (Q13555 whole entry): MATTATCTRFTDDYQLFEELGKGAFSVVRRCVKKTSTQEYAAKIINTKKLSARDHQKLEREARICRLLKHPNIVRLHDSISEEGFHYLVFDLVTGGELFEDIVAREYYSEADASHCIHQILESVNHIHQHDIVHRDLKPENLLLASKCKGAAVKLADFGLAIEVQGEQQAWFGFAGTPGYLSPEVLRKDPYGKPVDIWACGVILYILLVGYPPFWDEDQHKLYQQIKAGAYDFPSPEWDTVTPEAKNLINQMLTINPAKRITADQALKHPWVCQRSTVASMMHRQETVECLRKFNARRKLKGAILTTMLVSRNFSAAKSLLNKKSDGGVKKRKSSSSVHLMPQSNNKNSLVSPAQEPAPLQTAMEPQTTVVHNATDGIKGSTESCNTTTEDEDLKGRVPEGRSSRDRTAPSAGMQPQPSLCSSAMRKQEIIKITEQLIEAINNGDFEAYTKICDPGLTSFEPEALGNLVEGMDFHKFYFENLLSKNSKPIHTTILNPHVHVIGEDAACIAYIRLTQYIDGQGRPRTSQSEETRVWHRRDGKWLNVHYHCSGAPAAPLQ
Chain of Insulin receptor (P06213 28-758 limits assumed): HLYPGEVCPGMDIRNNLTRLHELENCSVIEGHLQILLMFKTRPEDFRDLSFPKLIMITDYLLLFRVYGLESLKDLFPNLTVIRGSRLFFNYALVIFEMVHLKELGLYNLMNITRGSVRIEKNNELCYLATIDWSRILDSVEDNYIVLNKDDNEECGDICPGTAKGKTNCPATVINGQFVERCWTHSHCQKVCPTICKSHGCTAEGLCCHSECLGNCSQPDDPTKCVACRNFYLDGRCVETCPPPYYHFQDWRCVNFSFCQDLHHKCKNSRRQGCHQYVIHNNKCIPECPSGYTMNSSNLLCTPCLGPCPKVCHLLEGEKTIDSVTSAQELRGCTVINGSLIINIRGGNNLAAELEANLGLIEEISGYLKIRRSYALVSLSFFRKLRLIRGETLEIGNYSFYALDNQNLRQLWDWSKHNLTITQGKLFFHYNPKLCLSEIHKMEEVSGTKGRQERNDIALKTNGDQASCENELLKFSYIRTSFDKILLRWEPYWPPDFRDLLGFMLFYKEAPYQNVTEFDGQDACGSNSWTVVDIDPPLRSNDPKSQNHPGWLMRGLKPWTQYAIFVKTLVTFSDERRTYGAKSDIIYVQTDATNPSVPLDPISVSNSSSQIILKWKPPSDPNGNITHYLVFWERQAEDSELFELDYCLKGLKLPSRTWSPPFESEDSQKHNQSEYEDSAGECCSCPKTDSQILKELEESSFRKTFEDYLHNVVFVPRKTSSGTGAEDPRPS
Chain of Insulin receptor (P06213 763-1382 limits assumed): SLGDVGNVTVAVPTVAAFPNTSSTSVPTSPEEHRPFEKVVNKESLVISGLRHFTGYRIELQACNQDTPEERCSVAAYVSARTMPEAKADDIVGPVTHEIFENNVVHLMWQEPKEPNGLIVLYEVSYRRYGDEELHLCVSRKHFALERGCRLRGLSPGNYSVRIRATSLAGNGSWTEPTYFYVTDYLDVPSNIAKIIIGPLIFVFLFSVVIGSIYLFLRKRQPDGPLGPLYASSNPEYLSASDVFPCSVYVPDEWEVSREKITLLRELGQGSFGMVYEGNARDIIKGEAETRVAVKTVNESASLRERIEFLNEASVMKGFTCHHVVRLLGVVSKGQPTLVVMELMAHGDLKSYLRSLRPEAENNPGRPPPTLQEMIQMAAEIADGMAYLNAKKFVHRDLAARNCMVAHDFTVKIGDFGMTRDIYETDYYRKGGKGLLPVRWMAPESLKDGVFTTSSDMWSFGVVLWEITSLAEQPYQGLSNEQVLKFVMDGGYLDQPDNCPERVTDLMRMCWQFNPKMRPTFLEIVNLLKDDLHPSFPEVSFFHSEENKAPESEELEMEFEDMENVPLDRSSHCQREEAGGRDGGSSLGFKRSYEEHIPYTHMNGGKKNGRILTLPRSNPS
Chain of Serine/threonine-protein kinase SIK2 (Q9H0K1 whole entry): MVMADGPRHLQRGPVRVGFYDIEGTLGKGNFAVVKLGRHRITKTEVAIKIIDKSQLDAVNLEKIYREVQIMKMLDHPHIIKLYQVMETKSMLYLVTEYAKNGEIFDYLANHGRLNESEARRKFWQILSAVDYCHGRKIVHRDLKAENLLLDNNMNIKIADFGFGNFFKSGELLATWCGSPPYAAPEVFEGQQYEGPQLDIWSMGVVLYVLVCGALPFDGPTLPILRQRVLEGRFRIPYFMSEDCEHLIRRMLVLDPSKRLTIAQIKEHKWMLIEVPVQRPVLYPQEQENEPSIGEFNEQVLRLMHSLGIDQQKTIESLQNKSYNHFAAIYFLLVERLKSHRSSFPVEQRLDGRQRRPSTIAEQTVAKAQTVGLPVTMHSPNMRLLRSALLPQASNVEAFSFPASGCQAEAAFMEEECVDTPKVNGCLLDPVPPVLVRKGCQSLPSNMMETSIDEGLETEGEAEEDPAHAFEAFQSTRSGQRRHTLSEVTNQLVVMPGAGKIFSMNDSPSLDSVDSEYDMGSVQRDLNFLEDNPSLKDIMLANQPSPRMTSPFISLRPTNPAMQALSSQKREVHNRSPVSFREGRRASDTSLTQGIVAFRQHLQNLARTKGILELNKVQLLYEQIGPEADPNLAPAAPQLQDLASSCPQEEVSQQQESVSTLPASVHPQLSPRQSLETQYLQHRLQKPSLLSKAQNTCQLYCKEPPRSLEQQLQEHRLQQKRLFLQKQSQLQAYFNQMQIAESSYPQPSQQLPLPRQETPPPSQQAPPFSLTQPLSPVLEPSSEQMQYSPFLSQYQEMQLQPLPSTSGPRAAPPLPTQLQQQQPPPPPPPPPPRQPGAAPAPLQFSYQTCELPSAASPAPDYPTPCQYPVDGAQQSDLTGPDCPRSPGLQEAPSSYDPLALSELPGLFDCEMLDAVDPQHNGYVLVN

In the case of `CCN1CCN(Cc2ccc(-c3cc4c(N[C@H](C)c5ccccc5)ncnc4[nH]3)cc2)CC1` [AEE-788], the Kd in test [1], in test [2], in test [3], in [4], in test [5] and in [6] was > 30 µM (inactive) in each case. Besides, the figures for the Kd in test [7], in test [8] and in test [9] were 41.8 µM (active), > 30 µM (inactive) and > 30 µM (inactive), respectively.
As to `CN1N=C(N)c2cn([C@@H]3O[C@H](COP(=O)(O)O)[C@@H](O)[C@H]3O)c3ncnc1c23` [TRICIRIBINE PHOSPHATE], the Kd in test [1], in test [2], in test [3], in test [4], in test [5] and in [6] was > 30 µM (inactive) in each case. The Kd in [7], in test [8] and in [9] was > 30 µM (inactive) throughout.
Regarding `CC(=O)Nc1cccc(-n2c(=O)n(C3CC3)c(=O)c3c(Nc4ccc(I)cc4F)n(C)c(=O)c(C)c32)c1` [TRAMETINIB], the Kd in test [1], in test [2], in test [3], in test [4], in [5] and in test [6] was > 30 µM (inactive) each time. In addition, the Kd in test [7], in test [8] and in test [9] was > 30 µM (inactive) in each case.
Consider `COCCNCc1ccc(-c2cc3nccc(Oc4ccc(NC(=S)NC(=O)Cc5ccc(F)cc5)cc4F)c3s2)nc1` [GLESATINIB], for which the Kd in [1], in test [2], in test [3], in test [4], in test [5] and in test [6] was > 30 µM (inactive) throughout. Besides, the Kd in test [7], in [8] and in [9] was > 30 µM (inactive) in each case.
Regarding `CNS(=O)(=O)Nc1nccc(Cc2c(C)c3ccc(Oc4ncccn4)cc3oc2=O)c1F` [AVUTOMETINIB], the Kd in [1], in [2], in test [3], in [4], in test [5] and in [6] was > 30 µM (inactive) each time. The Kd in [7], in [8] and in test [9] was > 30 µM (inactive) each time.
